Assay results published in US11542492B2 (Celgene CAR LLC, priority 2009, dated 2023).

Columns and labels:
[1] = biological target: T1, HCV NS3/4A 1b protease enzyme (wild type) (Hepatitis C virus genotype 1b, UniProt P26663); assay: HCV protease FRET assay (IC50_APP), wild type NS3/4A 1b; assay type: biochemical
T1 construct: 10× stocks of NS3/4A protease enzyme from Bioenza (Mountain View, Calif.); purchased Bioenza
Method: HCV Protease FRET Assay for WT and Mutated NS3/4A 1b Enzymes (IC50_APP).
The following protocol was used to generate “apparent” IC50 (IC50_APP) values as depicted in Table 6, below. Without wishing to be bound by any particular theory, it is believed that IC50_APP, contrasted with IC50 values, may provide a more useful indication of time-dependent inhibition, and are thus more representative of binding affinity. […] 5 μL of each enzyme were added to Corning (#3575) 384-well, black, microtiter plates (Corning, N.Y.) after spotting a 0.5 μL volume of 50% DMSO and serially diluted compounds prepared in 50% DMSO. Protease reactions were immediately started after enzyme addition with the addition of 45 μL of the FRET substrate and monitored for 60-90 minutes at λex485/λem520 in a Synergy plate reader from BioTek (Winooski, Vt.). At the conclusion of each assay, progress curves from each well were examined for linear reaction kinetics and fit statistics (R^2, 95% confidence intervals, absolute sum of squares). Initial velocity (0 minutes to 15+ minutes) from each reaction was determined from the slope of a plot of relative fluorescence units vs time (minutes) and then plotted against inhibitor concentration as a percent of the no inhibitor and no enzyme controls to estimate apparent IC50 from log [Inhibitor] vs Response. (Variable Slope model in GraphPad Prism from GraphPad Software (San Diego, Calif.).)

HCV NS3 protease WT 1b = biological target: T2, HCV NS3 protease WT 1b (Hepatitis C virus genotype 1b, UniProt P26663); assay: MALDI MS of intact HCV protease 1b WT incubated with compound; assay type: binding
T2 construct: The single-chain proteolytic domain (NS4A21-32-GSGS-NS33-631) was cloned into pET-14b; His tag (own knowledge of vector pET-14b); made in house; host or cells: Escherichia coli BL21
Method: Intact HCV (protease) 1bWT was incubated for 1 hr at a 10× fold excess of XVI-26 to protein. 3 ul aliquots of the samples were diluted with 10 ul of 0.1% TFA prior to micro C4 ZipTipping directly onto the MALDI target using Sinapinic acid as the desorption matrix (10 mg/mL in 0.1% TFA:Acetonitrile 50:50). […] Due to likely protein misfolding during protein purification, a small portion of the misfolded protein was not modified.
In order to determine whether the modification of the protein occurred at lysine, the pH from the above experiment was increased from 7.4 to 10.0. Because the compound lysine adduct would be an amide any increase in pH would have minimal effect on the modified protein. If however, the modification occurred at cysteine the resultant thioester bond would be unstable and the compound would hydrolyze off the protein.
Intact HCV (protease) 1bWT, C159S, and C159S/K136A were incubated for 1 hr at a 10× fold excess of XVI-26 to protein. 3 μl aliquots of the samples were diluted with 10 μl of 0.1% TFA prior to micro C4 ZipTipping directly onto the MALDI target using Sinapinic acid as the desorption matrix (10 mg/mL in 0.1% TFA:Acetonitrile 50:50).
Intact HCV (protease) WT1b was incubated for 1 hr at a 10× fold excess of XVI-1 (mw=782.87) to protein. 3 μl aliquots of the samples were diluted with 10 μl of 0.1% TFA prior to micro C4 ZipTipping directly onto the MALDI target using Sinapinic acid as the desorption matrix (10 mg/mL in 0.1% TFA:Acetonitrile 50:50). […] Due to some protein misfolding during the purification of the protein, the unfolded portion of the protein can not react with XVI-1.

p120γ (PI3Kγ) = biological target: T3, p120γ (PI3Kγ) (Homo sapiens, UniProt P48736); assay: HTRF assay, p120γ; assay type: biochemical; conditions: PI3Kγ; read-out: PI3Kγ HTRF IC50 Inhibition Designation
T3 construct: purchased BPS Bioscience 40625
Summary of the method: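 End-point competition-binding HTRF with 1-4 nM enzyme and 10 μM di-C8-PIP2, pre-incubated with compound 30 min at 25° C, then 50 μM ATP for 15-30 min at 25° C. HTRF ratio (665/620 nm) gave % inhibition; IC50 from variable-slope log-dose fit.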

p110β/p85α (PI3Kβ) = biological target: T4, p110β/p85α (PI3Kβ) (Homo sapiens, UniProt P42338); assay: HTRF assay, p110β/p85α; assay type: biochemical; conditions: read-out: PI3Kβ HTRF IC50 Inhibition Designation
T4 construct: purchased Millipore 14-603
Method: The mechanics of the assay platform are best described by the vendor (Millipore, Billerica, Mass.) on their website at the following URL: http://www.millipore.com/coa/tech1/74jt4z.
Briefly, Stop solution (Stop A, #33-007 and Stop B, #33-009; 3:1 ratio) and Detection Mix (DMC, #33-015 with DMA, #33-011 and DMB, #33-013; 18:1:1 ratio) were prepared as recommended by the manufacturer ˜2 hrs prior to use. […] Lipid kinase reactions were started with the addition of 5 μL of ATP solution, mixed for 15 sec on a rotary plate shaker and incubated for 15-30 minutes at 25° C. Next, reactions were stopped with a 5 μL addition of Stop solution followed by a 5 μL volume of Detection Mix. […] At the conclusion of each assay, the HTRF ratio from fluorescence emission values for each well was calculated and % Inhibition determined from averaged controls wells. % Inhibition values for each compound re then plotted against inhibitor concentration to estimate IC50 from log [Inhibitor] vs Response, Variable Slope model in GraphPad Prism from GraphPad Software (San Diego, Calif.).

IC50 (p120γ (PI3Kγ))	IC50 (p110β/p85α (PI3Kβ))	SMILES	IC50 [1]	MS_HCVNS3_INTACT_NS3 WT 1b 1 HR (HCV NS3 protease WT 1b)	conversion of HCV NS3 WT1b (HCV NS3 protease WT 1b; 1 hr, 10× fold excess)	positive mass shift of HCV 1bWT (HCV NS3 protease WT 1b; 1 hr, 10× fold excess of compound to protein)
–	–	C=C[C@@H]1C[C@]1(NC(=O)[C@@H]1CC(OC(=O)N2Cc3cccc(F)c3C2)CN1C(=O)[C@H](CCC(=O)N1C[C@H]2C[C@@H]1C(=O)O2)NC(=O)OC(C)(C)C)C(=O)NS(=O)(=O)C1CC1 (stereo partly drawn) [XVI-16, (5S)-1-((S)-2-(tert-butoxycarbonylamino)-5-oxo-5-((1R,4R)-3-oxo-2-oxa-5-azabicyclo[2.2.1]heptan-5-yl)pentanoyl)-5-((1R,2S)-1-(cyclopropylsulfonylcarbamoyl)-2-vinylcyclopropylcarbamoyl)pyrrolidin-3-yl 4-fluoroisoindoline-2-carboxylate]	< 1 nM	H (>50% and ≤70% modification)	–	–
–	–	C=C[C@@H]1C[C@]1(NC(=O)[C@@H]1CC(Oc2nccc3cc(OC)ccc23)CN1C(=O)[C@H](CCC(=O)N1C[C@@H]2CC[C@H]1C(=O)O2)NC(=O)OC(C)(C)C)C(=O)NS(=O)(=O)C1CC1 (stereo partly drawn) [XVI-3, tert-butyl(2S)-1-((2S)-2-((1R,2S)-1-(cyclopropylsulfonylcarbamoyl)-2-vinylcyclopropylcarbamoyl)-4-(6-methoxyisoquinolin-1-yloxy)pyrrolidin-1-yl)-1,5-dioxo-5-((1S,4S)-3-oxo-2-oxa-5-azabicyclo[2.2.2]octan-5-yl)pentan-2-ylcarbamate]	< 1 nM	K (≤30% modification)	–	–
–	–	C=C[C@@H]1C[C@]1(NC(=O)[C@@H]1CC(Oc2nccc3cc(OC)ccc23)CN1C(=O)[C@H](CCC(=O)N1C[C@H]2C[C@@H]1C(=O)O2)NC(=O)OC(C)(C)C)C(=O)NS(=O)(=O)C1CC1 (stereo partly drawn) [XVI-8]	< 1 nM	G (>70% modification)	–	–
–	–	C=C[C@@H]1C[C@]1(NC(=O)[C@@H]1CC(Oc2nccc3cc(OC)ccc23)CN1C(=O)[C@H](CCC(=O)N1CC[C@H]2C[C@@H]1C(=O)O2)NC(=O)OC(C)(C)C)C(=O)NS(=O)(=O)C1CC1 (stereo partly drawn) [XVI-2]	< 1 nM	K (≤30% modification)	–	–
–	–	C=C[C@@H]1C[C@]1(NC(=O)[C@@H]1CC(OC(=O)N2Cc3cccc(F)c3C2)CN1C(=O)[C@H](COC(=O)N[C@@H]1C(=O)O[C@@H]1C)NC(=O)OC(C)(C)C)C(=O)NS(=O)(=O)C1CC1 (stereo partly drawn) [XVI-25, (5S)-1-((S)-2-(tert-butoxycarbonylamino)-3-((2R,3S)-2-methyl-4-oxooxetan-3-ylcarbamoyloxy)propanoyl)-5-((1R,2S)-1-(cyclopropylsulfonylcarbamoyl)-2-vinylcyclopropylcarbamoyl)pyrrolidin-3-yl 4-fluoroisoindoline-2-carboxylate]	< 1 nM	K (≤30% modification)	–	–
–	–	C=C[C@@H]1C[C@]1(NC(=O)[C@@H]1C[C@@H](Oc2nccc3cc(OC)ccc23)CN1C(=O)[C@H](CCC(=O)N1CCC1=O)NC(=O)OC(C)(C)C)C(=O)NS(=O)(=O)C1CC1 [XVI-1, tert-butyl (S)-1-((2S,4R)-2-((1R,2S)-1-(cyclopropylsulfonylcarbamoyl)-2-vinylcyclopropylcarbamoyl)-4-(6-methoxyisoquinolin-1-yloxy)pyrrolidin-1-yl)-1,5-dioxo-5-(2-oxoazetidin-1-yl)pentan-2-ylcarbamate]	< 1 nM	G (>70% modification)	~72%	755 Da
100 to 1000 nM	100 to 1000 nM	COC(=O)N1C(=O)CC[C@H]1C(=O)N1CCN(Cc2cc3nc(-c4cnc(N)nc4)nc(N4CCOCC4)c3s2)CC1 [XXII-29, (S)-methyl 2-(4-((2-(2-aminopyrimidin-5-yl)-4-morpholinothieno[3,2-d]pyrimidin-6-yl)methyl)piperazine-1-carbonyl)-5-oxopyrrolidine-1-carboxylate]	–	–	–	–
–	–	C=C[C@@H]1C[C@]1(NC(=O)[C@@H]1C[C@@H](OC(=O)N2Cc3cccc(F)c3C2)CN1C(=O)[C@H](CNC(=O)c1cc(C(C)=O)oc1C)NC(=O)OC(C)(C)C)C(=O)NS(=O)(=O)C1CC1 [XVI-4]	100 to 1000 nM	K (≤30% modification)	–	–
–	–	C=C[C@@H]1C[C@]1(NC(=O)[C@@H]1CC(OC(=O)N2Cc3cccc(F)c3C2)CN1C(=O)[C@H](CC(=O)N1C[C@H]2C[C@@H]1C(=O)O2)NC(=O)OC(C)(C)C)C(=O)NS(=O)(=O)C1CC1 (stereo partly drawn) [XVI-14, (5S)-1-((S)-2-(tert-butoxycarbonylamino)-4-oxo-4-((1R,4R)-3-oxo-2-oxa-5-azabicyclo[2.2.1]heptan-5-yl)butanoyl)-5-((1R,2S)-1-(cyclopropylsulfonylcarbamoyl)-2-vinylcyclopropylcarbamoyl)pyrrolidin-3-yl 4-fluoroisoindoline-2-carboxylate]	< 1 nM	H (>50% and ≤70% modification)	–	–
100 to 1000 nM	100 to 1000 nM	CC(C)Oc1c(NCC(=O)N2CCN(Cc3cc4nc(-c5cnc(N)nc5)nc(N5CCOCC5)c4s3)CC2)c(=O)c1=O [XXII-27, 3-(2-(4-((2-(2-aminopyrimidin-5-yl)-4-morpholinothieno[3,2-d]pyrimidin-6-yl)methyl)piperazin-1-yl)-2-oxoethylamino)-4-isopropoxycyclobut-3-ene-1,2-dione]	–	–	–	–
100 to 1000 nM	1000 to 10000 nM	O=C1CC[C@@H](C(=O)N2CCN(Cc3cc4nc(-c5cccc6[nH]ncc56)nc(N5CCOCC5)c4s3)CC2)O1 [XXII-23]	–	–	–	–
–	–	C=C[C@@H]1C[C@]1(NC(=O)[C@@H]1C[C@@H](OC(=O)N2Cc3cccc(F)c3C2)CN1C(=O)[C@H](CNC(=O)c1coc(C(C)=O)c1)NC(=O)OC(C)(C)C)C(=O)NS(=O)(=O)C1CC1 [XVI-5]	100 to 1000 nM	K (≤30% modification)	–	–
–	–	C=C[C@@H]1C[C@]1(NC(=O)[C@@H]1CC(OC(=O)N2Cc3cccc(F)c3C2)CN1C(=O)[C@H](CCC(=O)N1C[C@@H]2C[C@H]1C(=O)O2)NC(=O)OC(C)(C)C)C(=O)NS(=O)(=O)C1CC1 (stereo partly drawn) [XVI-17, (5S)-1-((S)-2-(tert-butoxycarbonylamino)-5-oxo-5-((1S,4S)-3-oxo-2-oxa-5-azabicyclo[2.2.1]heptan-5-yl)pentanoyl)-5-((1R,2S)-1-(cyclopropylsulfonylcarbamoyl)-2-vinylcyclopropylcarbamoyl)pyrrolidin-3-yl 4-fluoroisoindoline-2-carboxylate]	< 1 nM	G (>70% modification)	–	–
10 to 100 nM	100 to 1000 nM	Nc1ncc(-c2nc(N3CCOCC3)c3sc(CN4CCN(C(=O)C5CCSC5=O)CC4)cc3n2)cn1 (stereo not drawn) [XXII-30, 3-(4-((2-(2-aminopyrimidin-5-yl)-4-morpholinothieno[3,2-d]pyrimidin-6-yl)methyl)piperazine-1-carbonyl)dihydrothiophen-2(3H)-one]	–	–	–	–
